Experimental data: ChEMBL document CHEMBL2073944 (Eur J Pharmacol, 2003)
pKi: −log10 of the molar value. Structures can show the parent of a compound that is named as a salt.

Experiments:
Assay type in all cases: functional, cell-based
[1] = target: T1, Solute carrier family 22 member 11 (Homo sapiens, UniProt Q9NSA0); test: TP_TRANSPORTER: uptake in OAT4-S2 cells; conditions: mouse
T1 sequence (Q9NSA0 whole entry): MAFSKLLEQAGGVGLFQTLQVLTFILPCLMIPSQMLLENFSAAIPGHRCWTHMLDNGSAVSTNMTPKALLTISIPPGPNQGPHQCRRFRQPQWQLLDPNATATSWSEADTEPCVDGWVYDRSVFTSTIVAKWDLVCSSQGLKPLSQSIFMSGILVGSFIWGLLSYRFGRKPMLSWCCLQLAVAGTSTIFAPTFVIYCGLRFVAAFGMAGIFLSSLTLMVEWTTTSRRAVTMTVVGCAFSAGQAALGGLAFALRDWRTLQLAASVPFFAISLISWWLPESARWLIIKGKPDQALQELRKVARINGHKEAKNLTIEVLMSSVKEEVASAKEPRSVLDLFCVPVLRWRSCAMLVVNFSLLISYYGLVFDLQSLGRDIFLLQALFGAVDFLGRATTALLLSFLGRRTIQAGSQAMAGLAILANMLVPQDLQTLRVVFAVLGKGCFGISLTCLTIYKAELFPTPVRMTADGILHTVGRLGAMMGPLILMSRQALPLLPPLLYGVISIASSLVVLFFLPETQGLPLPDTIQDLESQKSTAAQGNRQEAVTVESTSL

[2] = target: T1, Solute carrier family 22 member 11; test: TP_TRANSPORTER: inhibition of E1S uptake (E1S: 5 uM, indoxyl sulfate:500 uM) in S2 cells expressing human-OAT4
[3] = target: T2, Organic anion transporter 3 (Homo sapiens, UniProt Q8TCC7); test: TP_TRANSPORTER: uptake in OAT3-S2 cells; conditions: mouse
T2 sequence (Q8TCC7 whole entry): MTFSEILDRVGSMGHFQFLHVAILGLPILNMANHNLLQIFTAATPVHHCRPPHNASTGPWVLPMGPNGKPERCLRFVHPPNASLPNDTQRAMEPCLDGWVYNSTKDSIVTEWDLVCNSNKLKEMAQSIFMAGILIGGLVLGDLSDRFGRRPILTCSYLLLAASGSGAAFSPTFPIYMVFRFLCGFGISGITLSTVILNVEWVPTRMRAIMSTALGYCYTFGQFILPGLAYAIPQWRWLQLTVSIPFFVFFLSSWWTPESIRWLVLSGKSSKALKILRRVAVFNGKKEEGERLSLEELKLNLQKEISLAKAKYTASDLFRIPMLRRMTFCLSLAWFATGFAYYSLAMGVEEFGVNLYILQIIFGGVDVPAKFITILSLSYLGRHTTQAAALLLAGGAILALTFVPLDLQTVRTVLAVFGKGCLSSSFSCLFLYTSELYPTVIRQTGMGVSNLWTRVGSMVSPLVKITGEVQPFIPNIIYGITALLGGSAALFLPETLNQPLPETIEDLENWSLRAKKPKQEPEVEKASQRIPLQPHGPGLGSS

[4] = target: T1, Solute carrier family 22 member 11; test: TP_TRANSPORTER: uptake&inhibition of estrone sulfate in OAT4-S2 cells

Activity [1]: substrate [] | pKi [2]: 3.74 | Activity [3]: substrate [] | pKi [4]: 3.74
SMILES: O=S(=O)(O)Oc1c[nH]c2ccccc12 [INDOXYL SULFATE]
